Reference: PMC11865978, “Cellular Activity of CQWW Nullomer-Derived Peptides” (ACS Omega, 2025)

Test system: GCGR-E13
Assay: Multiparametric cell painting phenotypic profile (PCA)
Assay type: cell-based, human
Conditions: 1-16 μM, compared with control polyarginine peptide 15 and DMSO
Description: Figure 1 (A) 3D model of the CQWW peptide with residue labels shown in red. (B) Dose-dependent effect of peptide 2 (RRRRRCQWW) on cell survival across a range of cell lines, with fitted IC50 values shown below. (C) Representative live cell brightfield images of peptide 2 (RRRRRCQWW, 6 μM) against the glioblastoma stem cell line (GCGR-E28) versus normal neural stem cells (GCGR-NS9FB_B) after 3 h of incubation. (D) 3D principal component analysis (PCA 1, 2, and 3) from multiparametric cell painting image analysis of the GCGR-E13 cell line. […]
The phenotypic effect of the peptides was visualized by live cell imaging (Figure 1C, IncuCyte live cell imager) and also quantified via image analysis of cells labeled with the cell painting reagents (see Supporting Information) followed by image analysis using Cell Profiler (cellprofiler.org). […]
BSA/PBS. […] The data was then analyzed using a custom CellProfiler software pipeline using the University of Edinburgh high performance computing cluster. Dose response plots were calculated using HC StratomineR (corelifeanalytics.com). Nuclei count data was analyzed separately to generate cell survival metrics (normalized to aqueous glycerol/TX -100 control).
Dose response curves were fitted and IC50 values calculated using Prism GraphPad (graphpad.com). […]

H-RRRRRCQWW-NH2 [Peptide 2]
phenotypic profile in 3D principal component plot of cell painting features: strong, dose-dependent phenotype
